Data reported in the supplement of paper PMC4932681.

Legend:
BT-474 Tam1 [1] = test: drug sensitivity score (DSS) (DSS (dimensionless)); higher = more sensitive; extreme values may be limits of the assay; conditions: 4-OH-tamoxifen in medium 1 µM; 72 h
Procedure, shortened: (§1)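 Drug sensitivity score, relative IC50 as the curve midpoint, and top-dose inhibition were derived from logistic dose–response fits in the Breeze pipeline. These fits used CellTiter-Glo viability, read on a PHERAstar and normalised to vehicle-only and positive controls. Breast cancer cell lines and resistant derivatives had been incubated for 72 h at 37 °C in 384-well plates holding library drugs at five concentrations spanning a 10 000-fold range. Resistant lines were grown in medium with 1 μM of the selecting drug.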

BT-474 Tam2 [2] = test: as above; conditions: 4-OH-tamoxifen in medium 1 µM; 72 h
Procedure, shortened: as §1

BT-474 [3] = test: as above; conditions: 72 h
Procedure, shortened: as §1

MCF-7 Tam1 [4] = test: as above; conditions: 4-OH-tamoxifen in medium 1 µM; 72 h
Procedure, shortened: as §1

MCF-7 [5] = test: as above; conditions: 72 h
Procedure, shortened: as §1

T-47D Tam1 [6] = test: as above; conditions: 4-OH-tamoxifen in medium 1 µM; 72 h
Procedure, shortened: as §1

T-47D Tam2 [7] = test: as above; conditions: 4-OH-tamoxifen in medium 1 µM; 72 h
Procedure, shortened: as §1

T-47D [8] = test: as above; conditions: 72 h
Procedure, shortened: as §1

ZR-75-1 Tam1 [9] = test: as above; conditions: 4-OH-tamoxifen in medium 1 µM; 72 h
Procedure, shortened: as §1

ZR-75-1 Tam2 [10] = test: as above; conditions: 4-OH-tamoxifen in medium 1 µM; 72 h
Procedure, shortened: as §1

ZR-75-1 [11] = test: as above; conditions: 72 h
Procedure, shortened: as §1

BT-474 Tam1 [12] = test: relative IC50 (midpoint of fitted logistic curve, plateau may be below 50% inhibition; CellTiter-Glo viability); higher = less potent; conditions: 4-OH-tamoxifen in medium 1 µM; 72 h
Procedure, shortened: as §1

BT-474 Tam2 [13] = test: as above; conditions: 4-OH-tamoxifen in medium 1 µM; 72 h
Procedure, shortened: as §1

BT-474 [14] = test: as above; conditions: 72 h
Procedure, shortened: as §1

MCF-7 [15] = test: as above; conditions: 72 h
Procedure, shortened: as §1

T-47D Tam1 [16] = test: as above; conditions: 4-OH-tamoxifen in medium 1 µM; 72 h
Procedure, shortened: as §1

T-47D Tam2 [17] = test: as above; conditions: 4-OH-tamoxifen in medium 1 µM; 72 h
Procedure, shortened: as §1

T-47D [18] = test: as above; conditions: 72 h
Procedure, shortened: as §1

ZR-75-1 Tam1 [19] = test: as above; conditions: 4-OH-tamoxifen in medium 1 µM; 72 h
Procedure, shortened: as §1

ZR-75-1 Tam2 [20] = test: as above; conditions: 4-OH-tamoxifen in medium 1 µM; 72 h
Procedure, shortened: as §1

ZR-75-1 [21] = test: as above; conditions: 72 h
Procedure, shortened: as §1

MCF-7 Tam1 [22] = test: as above; conditions: 4-OH-tamoxifen in medium 1 µM; 72 h
Procedure, shortened: as §1

Row | SMILES | drug sensitivity score (BT-474 Tam1 [1]) | drug sensitivity score (BT-474 Tam2 [2]) | drug sensitivity score (BT-474 [3]; 4-OH-tamoxifen in medium 0 µM) | drug sensitivity score (BT-474 [3]; 4-OH-tamoxifen in medium 1 µM) | drug sensitivity score (MCF-7 Tam1 [4]) | drug sensitivity score (MCF-7 [5]; 4-OH-tamoxifen in medium 0 µM) | drug sensitivity score (MCF-7 [5]; 4-OH-tamoxifen in medium 1 µM) | drug sensitivity score (T-47D Tam1 [6]) | drug sensitivity score (T-47D Tam2 [7]) | drug sensitivity score (T-47D [8]; 4-OH-tamoxifen in medium 0 µM) | drug sensitivity score (T-47D [8]; 4-OH-tamoxifen in medium 1 µM) | drug sensitivity score (ZR-75-1 Tam1 [9]) | drug sensitivity score (ZR-75-1 Tam2 [10]) | drug sensitivity score (ZR-75-1 [11]; 4-OH-tamoxifen in medium 0 µM) | drug sensitivity score (ZR-75-1 [11]; 4-OH-tamoxifen in medium 1 µM) | relative IC50 (BT-474 Tam1 [12]) | relative IC50 (BT-474 Tam2 [13]) | relative IC50 (BT-474 [14]; 4-OH-tamoxifen in medium 0 µM) | relative IC50 (BT-474 [14]; 4-OH-tamoxifen in medium 1 µM) | relative IC50 (MCF-7 [15]; 4-OH-tamoxifen in medium 0 µM) | relative IC50 (MCF-7 [15]; 4-OH-tamoxifen in medium 1 µM) | relative IC50 (T-47D Tam1 [16]) | relative IC50 (T-47D Tam2 [17]) | relative IC50 (T-47D [18]; 4-OH-tamoxifen in medium 0 µM) | relative IC50 (T-47D [18]; 4-OH-tamoxifen in medium 1 µM) | relative IC50 (ZR-75-1 Tam1 [19]) | relative IC50 (ZR-75-1 Tam2 [20]) | relative IC50 (ZR-75-1 [21]; 4-OH-tamoxifen in medium 0 µM) | relative IC50 (ZR-75-1 [21]; 4-OH-tamoxifen in medium 1 µM) | relative IC50 (MCF-7 Tam1 [22])
1 | CCCCC(=O)OCC(=O)[C@]1(O)Cc2c(O)c3c(c(O)c2[C@@H](O[C@H]2C[C@H](NC(=O)C(F)(F)F)[C@H](O)[C@H](C)O2)C1)C(=O)c1c(OC)cccc1C3=O [Valrubicin] | 4.26 | 2.37 | 2.57 | 4.06 | 0.994 | 5.32 | 8.1 | 7.66 | 6.34 | 7.72 | 5.96 | 7.34 | 9.1 | 8.2 | 5.85 | 3120 nM | 4180 nM | 2640 nM | 3340 nM | 1450 nM | 1270 nM | 1100 nM | 1380 nM | 768 nM | 1530 nM | 1280 nM | 1130 nM | 554 nM | 1320 nM | –
2 | COc1c(C)cnc(Cn2cnc3c(Cl)nc(N)nc32)c1C [BIIB021] | 22 | 22 | 14.6 | 22.8 | 2.87 | 13.9 | 7.58 | 9.86 | 8.67 | 11.6 | 9.03 | 5.21 | 5.51 | 4.41 | 4.44 | 35.4 nM | 56.9 nM | 75.3 nM | 49 nM | 110 nM | 409 nM | 175 nM | 284 nM | 346 nM | 359 nM | 557 nM | 499 nM | 477 nM | 698 nM | –
3 | O=C(/C=C/c1cccc(S(=O)(=O)Nc2ccccc2)c1)NO [Belinostat  (PXD101)] | 10.5 | 9.18 | 12.8 | 16.8 | 2.18 | 14.7 | 12.7 | 9.66 | 7.43 | 12 | 11.9 | 4.54 | 6.02 | 4.2 | 3.84 | 958 nM | 870 nM | 547 nM | 354 nM | 363 nM | 554 nM | 1260 nM | 1180 nM | 795 nM | 857 nM | 964 nM | 833 nM | 791 nM | 1200 nM | –
4 | O=C(Cc1ccc(-c2ccc(OCCN3CCOCC3)cc2)cn1)NCc1ccccc1 [KX2-391] | 22 | 19.7 | 12.3 | 21.8 | 0 | 11.2 | 10.5 | 10.6 | 11.3 | 2.76 | 4.36 | 3.06 | 4.76 | 11.5 | 4.21 | 80.2 nM | 155 nM | 53.6 nM | 78 nM | 86.8 nM | 189 nM | 498 nM | 91.9 nM | 1600 nM | – | 2190 nM | 1110 nM | 53.1 nM | 779 nM | –
5 | Cc1c(N)nc([C@H](CC(N)=O)NC[C@H](N)C(N)=O)nc1C(=O)N[C@H](C(=O)N[C@H](C)[C@@H](O)[C@H](C)C(=O)N[C@H](C(=O)NCCc1nc(-c2nc(C(=O)NCCC[S+](C)C)cs2)cs1)[C@@H](C)O)[C@@H](OC1OC(CO)C(O)C(O)C1OC1OC(CO)C(O)C(OC(N)=O)C1O)c1cnc[nH]1 (some centres undefined) [Bleomycin] | 0 | 0 | 0 | 0 | 0 | 0.0343 | 0.0155 | 1.38 | 0 | 0.51 | 0 | 0.117 | 0 | 0.615 | 0 | > 10000 nM | > 10000 nM | > 10000 nM | > 10000 nM | – | – | – | > 10000 nM | – | > 10000 nM | – | > 10000 nM | – | > 10000 nM | > 10000 nM
6 | O=C(CCCCCCC(=O)Nc1ccccc1)NO [Vorinostat] | 6.36 | 7.23 | 5.53 | 10.5 | 0.897 | 8.23 | 8.2 | 5.24 | 2.19 | 5.73 | 4.3 | 3.29 | 2.51 | 1.99 | 1.27 | 2430 nM | 1890 nM | 2310 nM | 1090 nM | 1430 nM | 1330 nM | 1650 nM | 3060 nM | 2630 nM | 3670 nM | 1650 nM | 2270 nM | 2900 nM | 3660 nM | –
7 | Oc1nc(-c2ccc(C(F)(F)F)cc2)nc2c1CSCC2 [XAV-939] | 0 | 3.71 | 0 | 0 | 0 | 0 | 0.115 | 3.2 | 0 | 0 | 0 | 0 | 0.39 | 0 | 0 | > 10000 nM | – | > 10000 nM | > 10000 nM | > 10000 nM | – | – | > 10000 nM | > 10000 nM | > 10000 nM | > 10000 nM | – | > 10000 nM | > 10000 nM | > 10000 nM
